Reference: patent US6432934B1, “Methods and compositions for topical treatment of eye surface inflammation and related dry eye disease” (Advanced Vision Research, priority 1998, dated 2002)

What was measured:
[1] = test system: rabbit model for meibomianitis/meibomian gland dysfunction; test: Conjunctival goblet-cell density, rabbit model for meibomianitis/meibomian gland dysfunction; assay type: in vivo, New Zealand white rabbits; conditions: intramuscular 50 mg/kg/d, five days each week, weeks 8-20 post-op
[2] = test system: rabbit model for meibomianitis/meibomian gland dysfunction; test: Corneal epithelial glycogen level, rabbit model for meibomianitis/meibomian gland dysfunction; assay type: in vivo, New Zealand white rabbits; conditions: intramuscular 50 mg/kg/d, five days each week, weeks 8-20 post-op

Compound: CN(C)[C@@H]1C(O)=C(C(N)=O)C(=O)[C@@]2(O)C(O)=C3C(=O)c4c(O)cccc4[C@@](C)(O)[C@H]3C[C@@H]12.Cl [systemic tetracycline, tetracycline hydrochloride]
- effect on conjunctival goblet-cell density [1]: no effect
- effect on corneal glycogen [2]: no effect
